Laboratory results reported in patent publication US11629143B2, “HipK4 inhibitors and uses thereof” (Vibliome Therapeutics, LLC, priority 2020, dated 2023).

Assays:
Test in all cases: Kinase panel (mobility shift)
Format in all cases: biochemical
EPH-B2 = molecular target: T1, EPH-B2 (Homo sapiens, UniProt P29323); conditions: at 5 um
T1 sequence (P29323 19-1055): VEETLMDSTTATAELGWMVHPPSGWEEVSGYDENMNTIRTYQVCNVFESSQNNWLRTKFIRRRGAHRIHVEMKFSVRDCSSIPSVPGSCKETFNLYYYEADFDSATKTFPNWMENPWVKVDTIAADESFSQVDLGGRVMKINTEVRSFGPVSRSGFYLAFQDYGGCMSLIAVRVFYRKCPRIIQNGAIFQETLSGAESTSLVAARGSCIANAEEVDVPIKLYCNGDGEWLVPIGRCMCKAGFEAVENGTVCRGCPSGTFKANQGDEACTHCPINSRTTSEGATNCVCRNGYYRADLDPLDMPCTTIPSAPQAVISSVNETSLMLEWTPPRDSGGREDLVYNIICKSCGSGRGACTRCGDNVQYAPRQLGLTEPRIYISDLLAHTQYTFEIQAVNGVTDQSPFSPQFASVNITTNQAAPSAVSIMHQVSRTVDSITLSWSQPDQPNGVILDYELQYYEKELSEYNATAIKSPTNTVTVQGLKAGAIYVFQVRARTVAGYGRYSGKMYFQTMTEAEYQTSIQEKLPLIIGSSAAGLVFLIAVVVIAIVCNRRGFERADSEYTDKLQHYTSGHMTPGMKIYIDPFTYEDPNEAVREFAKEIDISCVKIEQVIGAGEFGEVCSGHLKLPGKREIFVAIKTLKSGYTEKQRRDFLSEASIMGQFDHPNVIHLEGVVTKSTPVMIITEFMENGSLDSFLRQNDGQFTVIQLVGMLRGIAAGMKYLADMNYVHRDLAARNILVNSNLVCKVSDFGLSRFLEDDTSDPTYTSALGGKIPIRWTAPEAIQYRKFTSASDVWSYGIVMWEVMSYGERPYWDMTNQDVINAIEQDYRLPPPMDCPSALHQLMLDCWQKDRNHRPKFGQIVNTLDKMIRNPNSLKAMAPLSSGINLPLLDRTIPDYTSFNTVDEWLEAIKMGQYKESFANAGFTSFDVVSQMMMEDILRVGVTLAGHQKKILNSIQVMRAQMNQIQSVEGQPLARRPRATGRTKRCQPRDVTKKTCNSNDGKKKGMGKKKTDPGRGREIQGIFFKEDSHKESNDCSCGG
Experimental: (§1) The disclosed compounds were tested for activity against a panel of 299 kinases. The target enzyme was incubated with fluorescently labeled substrate and test compounds in a standardized reaction mixture in 384 well plates. Upon termination of the reaction, samples were introduced onto microfluidic chips. The samples migrated through channels in the chips and product and substrate were separated based on the difference in their charge (electrophoretic mobility shift). Enzyme activity was measured by direct comparison of the fluorescence in the product and substrate peaks. […] In the tables A=95% or greater at 5 um, B=90%-94% at 5 um, and C=80%-89% at 5 um. [note to draft: we included category D for 50-79 and category E is less than 50%. Feel free to remove if not needed)

BRK = BRK (Homo sapiens, UniProt Q13882)
Experimental: as §1

EPH-A6 = molecular target: T2, EPH-A6 (Homo sapiens, UniProt Q9UF33)
T2 sequence (Q9UF33 23-1036): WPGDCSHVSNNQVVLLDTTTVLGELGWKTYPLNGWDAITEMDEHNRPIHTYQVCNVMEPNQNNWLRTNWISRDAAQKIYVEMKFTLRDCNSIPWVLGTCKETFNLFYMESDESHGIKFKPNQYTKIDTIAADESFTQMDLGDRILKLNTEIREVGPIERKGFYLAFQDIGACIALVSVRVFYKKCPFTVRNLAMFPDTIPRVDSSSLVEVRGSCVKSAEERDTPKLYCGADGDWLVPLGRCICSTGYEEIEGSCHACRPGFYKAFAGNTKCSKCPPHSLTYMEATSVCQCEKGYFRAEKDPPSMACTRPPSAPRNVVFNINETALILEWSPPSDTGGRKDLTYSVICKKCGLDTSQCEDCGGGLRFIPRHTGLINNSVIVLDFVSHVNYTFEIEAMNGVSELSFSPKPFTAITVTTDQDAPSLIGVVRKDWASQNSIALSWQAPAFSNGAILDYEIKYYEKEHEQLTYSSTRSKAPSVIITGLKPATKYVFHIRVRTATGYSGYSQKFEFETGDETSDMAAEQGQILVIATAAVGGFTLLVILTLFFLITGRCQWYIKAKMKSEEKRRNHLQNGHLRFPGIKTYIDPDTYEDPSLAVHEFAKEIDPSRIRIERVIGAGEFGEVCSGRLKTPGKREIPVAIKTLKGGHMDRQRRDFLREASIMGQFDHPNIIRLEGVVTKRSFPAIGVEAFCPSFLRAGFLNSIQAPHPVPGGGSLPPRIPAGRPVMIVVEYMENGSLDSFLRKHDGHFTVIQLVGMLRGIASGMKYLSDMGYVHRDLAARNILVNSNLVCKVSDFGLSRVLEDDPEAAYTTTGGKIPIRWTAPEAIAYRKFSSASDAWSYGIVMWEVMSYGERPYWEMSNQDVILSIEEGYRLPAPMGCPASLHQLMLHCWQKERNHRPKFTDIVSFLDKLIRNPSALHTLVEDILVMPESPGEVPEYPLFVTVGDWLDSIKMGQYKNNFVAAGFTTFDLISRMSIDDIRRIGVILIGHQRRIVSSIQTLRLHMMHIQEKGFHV
Experimental: as §1

BRK, sequence (Q13882 whole entry, species assumed): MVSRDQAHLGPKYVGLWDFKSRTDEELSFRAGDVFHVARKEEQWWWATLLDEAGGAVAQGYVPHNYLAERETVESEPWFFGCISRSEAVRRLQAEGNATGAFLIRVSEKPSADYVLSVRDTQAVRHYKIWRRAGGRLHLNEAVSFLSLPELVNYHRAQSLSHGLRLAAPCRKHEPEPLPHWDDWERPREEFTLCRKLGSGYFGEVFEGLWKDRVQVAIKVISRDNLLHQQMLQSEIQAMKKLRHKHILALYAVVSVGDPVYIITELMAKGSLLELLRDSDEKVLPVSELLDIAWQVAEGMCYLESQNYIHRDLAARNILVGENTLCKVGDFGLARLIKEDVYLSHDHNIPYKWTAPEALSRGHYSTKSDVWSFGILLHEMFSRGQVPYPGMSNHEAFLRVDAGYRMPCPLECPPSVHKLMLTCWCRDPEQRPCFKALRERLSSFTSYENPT

SMILES	inhibition of kinase activity, EPH-B2 (EPH-B2)	inhibition at 5 µM (BRK)	inhibition at 5 µM (EPH-A6)
CNC(=O)c1cc(Oc2ccc(NC(=O)c3nc(C4CC4)oc3-c3ccc(F)cc3)cc2F)ccn1 [Compound 26]	C (C=80%-89% at 5 um)	90 to 94%	90 to 94%
CNC(=O)c1cc(Oc2ccc(NC(=O)c3nc(OC)oc3-c3ccc(F)c(F)c3)cc2F)ccn1 [Compound 24]	E (category E is less than 50%)	< 50%	50 to 79%
CNC(=O)c1cc(Oc2ccc(NC(=O)c3nc(SC)oc3-c3ccc(Cl)s3)cc2)ccn1 [Compound 5]	E (category E is less than 50%)	50 to 79%	50 to 79%
CNC(=O)c1cc(Oc2ccc(NC(=O)c3nc(SC)oc3-c3ccc(OC)cc3)cc2)ccn1 [Compound 7]	E (category E is less than 50%)	< 50%	< 50%
CNC(=O)c1cc(Oc2ccc(NC(=O)c3nc(SC)oc3-c3ccc(F)s3)cc2F)ccn1 [Compound 16]	D (category D for 50-79)	< 50%	50 to 79%
CNC(=O)c1cc(Oc2ccc(NC(=O)c3nc(SC)oc3-c3ccc(F)cc3F)cc2F)ccn1 [Compound 12]	D (category D for 50-79)	≥ 95%	80 to 89%
CNC(=O)c1cc(Oc2ccc(NC(=O)c3nc(NC)sc3-c3ccc(F)cc3F)cc2F)ccn1 [Compound 21]	D (category D for 50-79)	< 50%	50 to 79%
CNC(=O)c1cc(Oc2c(F)cc(NC(=O)c3nc(NC)sc3-c3ccc(F)cc3)cc2F)ccn1 [Compound 19]	D (category D for 50-79)	50 to 79%	80 to 89%
CSc1nc(C(=O)Nc2ccc(Oc3ccnc(-c4cnn(C)c4)c3)c(F)c2)c(-c2ccc(F)cc2)o1 [Compound 11]	B (B=90%-94% at 5 um)	≥ 95%	≥ 95%
CNC(=O)c1cc(Oc2ccc(NC(=O)c3nc(OC)oc3-c3ccc(F)cc3)cc2F)ccn1 [Compound 15]	D (category D for 50-79)	50 to 79%	90 to 94%
CNC(=O)c1cc(Oc2ccc(NC(=O)c3nc(NC)oc3-c3ccc(F)s3)cc2F)ccn1 [Compound 17]	E (category E is less than 50%)	< 50%	< 50%
CNC(=O)c1cc(Oc2ccc(NC(=O)c3nc(SC)oc3-c3ccc(F)c(F)c3)cc2)ccn1 [Compound 4]	E (category E is less than 50%)	50 to 79%	50 to 79%
CNC(=O)c1cc(Oc2ccc(NC(=O)c3nc(NC)sc3-c3ccc(F)cc3C)cc2F)ccn1 [Compound 23]	D (category D for 50-79)	50 to 79%	80 to 89%
CNC(=O)c1cc(Oc2ccc(NC(=O)c3nc(SC)oc3-c3ccc(F)cc3F)cc2)ccn1 [Compound 6]	E (category E is less than 50%)	≥ 95%	≥ 95%
CSc1nc(C(=O)Nc2ccc(Oc3cc4cnn(C)c4cc3Br)c(F)c2)c(-c2ccc(F)cc2)o1 [Compound 2]	E (category E is less than 50%)	< 50%	50 to 79%
CSc1nc(C(=O)Nc2ccc(Oc3ccnc(N)c3Cl)c(F)c2)c(-c2ccc(F)cc2)o1 [Compound 1]	E (category E is less than 50%)	50 to 79%	< 50%

Continued, values first:

inhibition of kinase activity, EPH-B2 (EPH-B2)	inhibition at 5 µM (BRK)	inhibition at 5 µM (EPH-A6)	SMILES
D (category D for 50-79)	≥ 95%	80 to 89%	CSc1nc(C(=O)Nc2ccc(Oc3ccnc(C(=O)NCCN(C)C)c3)c(F)c2)c(-c2ccc(F)cc2)o1 [Compound 41]
E (category E is less than 50%)	< 50%	50 to 79%	CNC(=O)c1ccc(Oc2ccc(NC(=O)c3nc(Cl)oc3-c3ccc(F)cc3)c(F)c2)cn1 [Compound 36]
E (category E is less than 50%)	≥ 95%	50 to 79%	CSc1nc(C(=O)Nc2ccc(Oc3ccnc(C(=O)NC4CCN(C)CC4)c3)c(F)c2)c(-c2ccc(F)cc2)o1 [Compound 42]
D (category D for 50-79)	≥ 95%	90 to 94%	CNC(=O)c1cc(Oc2ccc(NC(=O)c3nc(OC4CC4)oc3-c3ccc(F)cc3)cc2F)ccn1 [Compound 32]
B (B=90%-94% at 5 um)	≥ 95%	≥ 95%	CNC(=O)c1cc(Oc2ccc(NC(=O)c3nc(COC)oc3-c3ccc(F)cc3)cc2F)ccn1 [Compound 30]
E (category E is less than 50%)	< 50%	< 50%	CSc1nc(C(=O)Nc2ccc(Oc3ccnc(C(=O)NC4COC4)c3)c(F)c2)c(-c2ccc(F)s2)o1 [Compound 28]
C (C=80%-89% at 5 um)	90 to 94%	90 to 94%	CNC(=O)c1cc(Oc2ccc(NC(=O)c3nc(SC(C)C)oc3-c3ccc(F)cc3)cc2F)ccn1 [Compound 34]
E (category E is less than 50%)	90 to 94%	80 to 89%	CNC(=O)c1cc(Oc2ccc(NC(=O)c3nc(OCC(F)(F)F)oc3-c3ccc(F)cc3)cc2F)ccn1 [Compound 38]
E (category E is less than 50%)	< 50%	< 50%	CSc1nc(C(=O)Nc2ccc(Oc3ccnc(C(=O)NC4CNC4)c3)c(F)c2)c(-c2ccc(F)s2)o1 [Compound 27]
E (category E is less than 50%)	< 50%	< 50%	CSc1nc(C(=O)Nc2ccc(Oc3ccnc(C(=O)NC4COC4)c3)c(F)c2)c(-c2ccc(F)c(F)c2)o1 [Compound 37]
E (category E is less than 50%)	≥ 95%	80 to 89%	CSc1nc(C(=O)Nc2ccc(Oc3ccnc(C(=O)NC4CNC4)c3)c(F)c2)c(-c2ccc(F)cc2)o1 [Compound 29]
